According to ChEMBL document CHEMBL5385913, “First-in-Class Dual EZH2-HSP90 Inhibitor Eliciting Striking Antiglioblastoma Activity In Vitro and In Vivo” (J Med Chem, 2024):
Calls of active or inactive are those of the source. The calls are words filed in the database; no cut-off is given here.

Columns and labels:
[1] = Downregulation of CENPW level in TMZ-resistant patient-derived human GBM cells assessed as fold change at 2 uM by GlioVis analysis (reference value: 2.83); assay type: functional
[2] = Downregulation of CENPM level in TMZ-resistant patient-derived human GBM cells assessed as fold change at 2 uM by GlioVis analysis (reference value: 2.23); assay type: functional
[3] = Downregulation of OIP5 level in TMZ-resistant patient-derived human GBM cells assessed as fold change at 2 uM by GlioVis analysis (reference value: 2.31); assay type: functional
[4] = Downregulation of HJURP level in TMZ-resistant patient-derived human GBM cells assessed as fold change at 2 uM by GlioVis analysis (reference value: 4.74); assay type: functional
[5] = Downregulation of MIS18BP1 level in TMZ-resistant patient-derived human GBM cells assessed as fold change at 2 uM by GlioVis analysis (reference value: 3.87); assay type: functional
[6] = Downregulation of HELLS level in TMZ-resistant patient-derived human GBM cells assessed as fold change at 2 uM by GlioVis analysis (reference value: 4.19); assay type: functional
[7] = Downregulation of CENPO level in TMZ-resistant patient-derived human GBM cells assessed as fold change at 2 uM by GlioVis analysis (reference value: 3.12); assay type: functional
[8] = Downregulation of CENPO level in TMZ-resistant patient-derived human GBM cells assessed as fold change at 2 uM by GlioVis analysis (reference value: 2.67); assay type: functional
[9] = Downregulation of CENPU level in TMZ-resistant patient-derived human GBM cells assessed as fold change at 2 uM by GlioVis analysis (reference value: 3.88); assay type: functional
[10] = Downregulation of CENPK level in TMZ-resistant patient-derived human GBM cells assessed as fold change at 2 uM by GlioVis analysis (reference value: 3.71); assay type: functional
[11] = Downregulation of CENPA level in TMZ-resistant patient-derived human GBM cells assessed as fold change at 2 uM by GlioVis analysis (reference value: 3.64); assay type: functional
[12] = Downregulation of CENPI level in TMZ-resistant patient-derived human GBM cells assessed as fold change at 2 uM by GlioVis analysis (reference value: 3.46); assay type: functional
[13] = Effect on processing DNA double-strand break in TMZ-resistant patient-derived human GBM cells assessed as fold decrease in RBBP8 gene expression at 2 uM (reference value: 4.92); assay type: functional
[14] = Effect on processing DNA double-strand break in TMZ-resistant patient-derived human GBM cells assessed as fold decrease in BLM gene expression at 2 uM (reference value: 3.55); assay type: functional
[15] = Effect on processing DNA double-strand break in TMZ-resistant patient-derived human GBM cells assessed as fold decrease in DNA2 gene expression at 2 uM (reference value: 2.75); assay type: functional
[16] = tested on: GBM; assay: Effect on homologous recombination in TMZ-resistant patient-derived human GBM cells assessed as fold decrease in TOP2A gene expression at 2 uM (reference value: 6.78); assay type: functional
[17] = tested on: GBM; assay: Effect on homologous recombination in TMZ-resistant patient-derived human GBM cells assessed as fold decrease in RAD21 gene expression at 2 uM (reference value: 5.77); assay type: functional
[18] = tested on: GBM; assay: Effect on homologous recombination in TMZ-resistant patient-derived human GBM cells assessed as fold decrease in HDAC10 gene expression at 2 uM (reference value: 0.53); assay type: functional
[19] = tested on: GBM; assay: Effect on homologous recombination in TMZ-resistant patient-derived human GBM cells assessed as fold decrease in MSH5 gene expression at 2 uM (reference value: 1.52); assay type: functional
[20] = tested on: GBM; assay: Effect on homologous recombination in TMZ-resistant patient-derived human GBM cells assessed as fold decrease in RAD54B gene expression at 2 uM (reference value: 1.74); assay type: functional
[21] = tested on: GBM; assay: Effect on homologous recombination in TMZ-resistant patient-derived human GBM cells assessed as fold decrease in BLM gene expression at 2 uM (reference value: 3.55); assay type: functional
[22] = tested on: GBM; assay: Effect on homologous recombination in TMZ-resistant patient-derived human GBM cells assessed as fold decrease in MND1 gene expression at 2 uM (reference value: 2.95); assay type: functional
[23] = tested on: GBM; assay: Effect on homologous recombination in TMZ-resistant patient-derived human GBM cells assessed as fold decrease in EME1 gene expression at 2 uM (reference value: 2.94); assay type: functional
[24] = tested on: GBM; assay: Effect on homologous recombination in TMZ-resistant patient-derived human GBM cells assessed as fold decrease in PSMC3IP gene expression at 2 uM (reference value: 2.71); assay type: functional
[25] = tested on: GBM; assay: Effect on homologous recombination in TMZ-resistant patient-derived human GBM cells assessed as fold decrease in FANCM gene expression at 2 uM (reference value: 2.59); assay type: functional
[26] = tested on: GBM; assay: Effect on homologous recombination in TMZ-resistant patient-derived human GBM cells assessed as fold decrease in RMI1 gene expression at 2 uM (reference value: 3.44); assay type: functional
[27] = tested on: GBM; assay: Induction of ROS production in patient-derived human GBM cells measured after 48 hrs by DHR staining based flow cytometry; assay type: functional, cell-based
[28] = tested on: GBM; assay: Induction of ROS production in TMZ-resistant patient-derived human GBM cells measured after 48 hrs by DHR staining based flow cytometry; assay type: functional, cell-based
[29] = tested on: GBM; assay: Induction of ROS production in patient-derived human GBM cells assessed as decrease in SOD1 level upto 10 uM measured after 48 hrs by Western blot analysis; assay type: functional, cell-based
[30] = tested on: GBM; assay: Induction of ROS production in patient-derived human GBM cells assessed as decrease in GPX1 level upto 10 uM measured after 48 hrs by Western blot analysis; assay type: functional, cell-based
[31] = tested on: GBM; assay: Induction of ROS production in TMZ-resistant patient-derived human GBM cells assessed as decrease in SOD1 level upto 10 uM measured after 48 hrs by Western blot analysis; assay type: functional, cell-based
[32] = tested on: GBM; assay: Induction of ROS production in TMZ-resistant patient-derived human GBM cells assessed as decrease in GPX1 level upto 10 uM measured after 48 hrs by Western blot analysis; assay type: functional, cell-based
[33] = molecular target: Histone-lysine N-methyltransferase EZH2 (Homo sapiens) (UniProt Q15910); assay: Inhibition of EZH2 in TMZ-resistant patient-derived human GBM cells upto 10 uM measured after 48 hrs by Western blot analysis; assay type: cell-based
Chain of Histone-lysine N-methyltransferase EZH2 (Homo sapiens) (Q15910 whole entry, looked up): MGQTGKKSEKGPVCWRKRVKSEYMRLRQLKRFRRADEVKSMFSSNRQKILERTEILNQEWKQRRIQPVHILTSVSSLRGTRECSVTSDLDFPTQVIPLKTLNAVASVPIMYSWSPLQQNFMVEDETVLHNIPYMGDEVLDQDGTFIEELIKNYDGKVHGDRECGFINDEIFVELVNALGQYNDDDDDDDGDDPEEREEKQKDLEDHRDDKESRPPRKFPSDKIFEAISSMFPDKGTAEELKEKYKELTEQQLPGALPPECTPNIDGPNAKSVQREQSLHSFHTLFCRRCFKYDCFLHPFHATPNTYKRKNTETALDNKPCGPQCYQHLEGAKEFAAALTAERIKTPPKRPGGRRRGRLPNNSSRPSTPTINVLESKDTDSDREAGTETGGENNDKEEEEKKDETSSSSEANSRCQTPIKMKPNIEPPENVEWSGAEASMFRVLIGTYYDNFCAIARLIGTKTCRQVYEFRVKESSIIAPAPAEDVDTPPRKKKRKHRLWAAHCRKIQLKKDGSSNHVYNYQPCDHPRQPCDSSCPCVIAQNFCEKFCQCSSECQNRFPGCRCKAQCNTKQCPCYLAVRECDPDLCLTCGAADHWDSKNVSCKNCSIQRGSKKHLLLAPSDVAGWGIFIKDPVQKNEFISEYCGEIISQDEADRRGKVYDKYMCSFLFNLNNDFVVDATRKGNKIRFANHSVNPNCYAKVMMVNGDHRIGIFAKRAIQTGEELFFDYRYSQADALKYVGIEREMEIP

[34] = molecular target: Histone-lysine N-methyltransferase EZH2 (Homo sapiens) (UniProt Q15910); assay: Inhibition of EZH2 in patient-derived human GBM cells upto 10 uM measured after 48 hrs by Western blot analysis; assay type: cell-based
[35] = molecular target: Histone-lysine N-methyltransferase EZH2 (Homo sapiens) (UniProt Q15910); assay: Inhibition of EZH2-mediated H3K27 trimethylation in TMZ-resistant patient-derived human GBM cells upto 10 uM measured after 48 hrs by Western blot analysis; assay type: cell-based
[36] = molecular target: Histone-lysine N-methyltransferase EZH2 (Homo sapiens) (UniProt Q15910); assay: Inhibition of EZH2-mediated H3K27 trimethylation in patient-derived human GBM cells upto 10 uM measured after 48 hrs by Western blot analysis; assay type: cell-based
[37] = tested on: GBM; assay: Induction of mitochondrial ROS production in TMZ-resistant patient-derived human GBM cells by MitoSOX staining based analysis; assay type: functional, cell-based
[38] = tested on: GBM; assay: Induction of ROS production in TMZ-resistant patient-derived human GBM cells assessed as increase in cleaved caspase-3 level upto 5 uM measured for 48 hrs by Western blot analysis; assay type: functional, cell-based
[39] = tested on: GBM; assay: Antitumor activity against TMZ-resistant patient-derived human GBM cells xenografted in NOD.CB17-Prkdcscid/NCrCrl mouse assessed as reduction in tumor growth at 20 mg/kg, ip treated twice per week; assay type: functional, organism-based

Compound: CCN(c1cc(-c2cccc(N(C)C(=O)c3cc(C(C)C)c(O)cc3O)c2)cc(C(=O)NCc2c(C)cc(C)[nH]c2=O)c1C)C1CCOCC1
- fold change (FC) [1]: 0.72
- fold change (FC) [2]: 0.48
- fold change (FC) [3]: 0.66
- fold change (FC) [4]: 1.38
- fold change (FC) [5]: 2.43
- fold change (FC) [6]: 2.37
- fold change (FC) [7]: 1.84
- fold change (FC) [8]: 1.53
- fold change (FC) [9]: 1.46
- fold change (FC) [10]: 1.33
- fold change (FC) [11]: 0.81
- fold change (FC) [12]: 1.14
- fold change (FC) [13]: 3.95
- fold change (FC) [14]: 0.72
- fold change (FC) [15]: 1.33
- fold change (FC) [16]: 2.68
- fold change (FC) [17]: 4.69
- fold change (FC) [18]: 0.17
- fold change (FC) [19]: 0.44
- fold change (FC) [20]: 0.83
- fold change (FC) [21]: 0.72
- fold change (FC) [22]: 0.36
- fold change (FC) [23]: 0.75
- fold change (FC) [24]: 1.17
- fold change (FC) [25]: 1.77
- fold change (FC) [26]: 2.33
- Activity [27]: Active
- Activity [28]: Active
- Activity [29]: Active
- Activity [30]: Active
- Activity [31]: Active
- Activity [32]: Active
- inhibition [33]: Active
- inhibition [34]: Active
- inhibition [35]: Active
- inhibition [36]: Active
- Activity [37]: Active
- Activity [38]: Active
- Activity [39]: Active
